Among the data in a melting point compilation (Tetko et al.; mined from patent text by program, amines drawn as free bases though some values may be those of a salt) are melting point values, retold here.

Non-standard residues stand in square brackets, D forms with d. Residues, ends and D or L forms follow the SMILES beside them. pGlu = O=C1CC[CH](C(=O)O)N1

What is called melting point is the temperature, or range, at which the solid turns liquid. Molecule `CCOC(=O)c1ccc(C(=O)Nc2ccc3c(c2)N(C)C(=O)CCC3(C)C)cc1` showed a melting point of 174 to 175 °C.
`Cc1nn(Cc2ccc(Cl)cc2)c(C)c1CC(=O)O` gave a melting point of 173 to 174 °C.
As for `Cc1cccc(NC(=O)NCCC(=O)N(CC(=O)OC(C)(C)C)c2ccccc2)c1`, the figure is 142 °C; as for `OCC(CO)Cc1cccc(Br)c1`, 61 to 63 °C; as for `Cc1cccc(-c2sc(NC(=O)Nc3ccccc3)nc2-c2cc(C)nc(C)c2)c1`, 173 to 174 °C.
With `COc1cc(Nc2ncc(-c3ccccc3C(=O)O)o2)ccc1-c1cnco1` the figure was 271 to 274 °C; with `COc1ccccc1-c1c(C2CCN(C)CC2)[nH]c(=O)c2ccccc12`, 153 to 155 °C.
`CCNC(=O)c1cccc2c1c(=O)n(Cc1cccnc1)n2C(=O)OCC` had a melting point of 197 to 198 °C.
With `CC(=O)OC1CSC(Oc2cccnc2-c2ccco2)C(OC(C)=O)C1OC(C)=O` (configuration not stated) the figure was 160 °C; with `CC(c1ccccc1)n1cncc1C(=O)O` (single isomer, unassigned; (-)), 155 °C; with `NC(=O)CC(NC(=O)C(CO)NC(=O)CNC(=O)CNC(=O)C1CCC(=O)N1)C(=O)NC(Cc1ccccc1)C(N)=O` (configuration not stated) ([pGlu]GGSNF-NH2; configuration not given here), 218 to 221 °C.
With `CO[C@@H](Cc1ccc(C#CCOc2ccc(-c3ccccc3)cc2)cc1)C(=O)O` the figure was 111 to 112 °C; with `Cc1cc(O)ccc1-n1cc(C(=O)O)c(=O)cc1C=NN1CCOCC1`, 267 to 268 °C; with `CSC1=Nc2ccc(C)cc2Cn2nnnc21`, 157 to 160 °C.
`COCCOCCN1C(=O)C2(c3cc4c(cc3OC2OC)OCCO4)c2c(OC)cccc21` (configuration not stated): the melting point lay in the range of 109 to 110 °C.
With `CC(CN1CCCC1)N1c2ccccc2Sc2ccc(C(=O)Nc3ccccc3)cc21` (racemic) the figure was 163 °C.
With `CC(C)(C)OC(=O)Nc1ccncc1C(=O)O` the figure was 260 °C; with `NC(=O)OC(=O)C(Cl)(Cl)Cl`, 183 to 184 °C; with `CCCN(C)c1ncc2cc(-c3ccc(C(=O)N4CCN(C)CC4)cc3)[nH]c2n1`, 222 to 224 °C.
With `CC(C)(C)c1ccc(C#N)c(NC(=O)Nc2cccnc2)c1` the figure was 164 to 166 °C; with `CC(=O)Nc1cccc(C=O)c1C`, 160 °C.
Take `CC(=O)Nc1nc2c(Oc3cc(-c4ccc(C(F)(F)F)cc4NC(=O)C4CCCCN4C(C)C)ncn3)cccc2s1` (configuration not stated): the melting point came to 260 °C.
As for `CC(C)(C)n1c(=O)[nH]c2ccccc2c1=O`, the figure is 218 to 220 °C; as for `O=C(NCCCCCCC(=O)c1ncco1)c1cc2ccccc2[nH]1`, 153 to 156 °C.
With `CCOC(=O)c1nc(-c2ccc([N+](=O)[O-])c(C)c2)[nH]c1-c1ccc(OC)cc1` the figure was 187 to 191 °C; with `CC(C)(C)OC(=O)NCC(O)(CNCC(O)C(Cc1ccccc1)NC(=O)OC(C)(C)C)Cc1ccccc1` (configuration not stated), 65 to 67 °C; with `FC(F)Oc1ccc2c(Cc3c(Cl)cncc3Cl)nnc(N3CCOCC3)c2c1`, 129 to 131 °C.
`CCCCC(Cc1cc(C(C)(C)C)c(O)c(C(C)(C)C)c1)(C(=O)OC1CC(C)(C)N(C(C)=O)C(C)(C)C1)C(=O)OC1CC(C)(C)N(C(C)=O)C(C)(C)C1` had a melting point of 120 to 124 °C.
With `CC1=CC2c3cccc4[nH]c(SC(C)C)c(c34)CC2N(C)C1` (configuration not stated) the figure was 145 to 147 °C.
`Cc1ccc(N)c2nccc(Cl)c12` gave a melting point of 104 to 107 °C.
As for `CC1(C)CN2C(=O)c3ncccc3C(O)(c3ccc(Cl)cc3)C2=N1` (configuration not stated), the figure is 257 to 260 °C.
As for `CN1CCN(C(=O)c2ccc(N)cc2C(F)(F)F)CC1`, the figure is 154 to 156 °C; as for `COc1ccc([N+](=O)[O-])c2c1CC(NC(C)=O)CC2` (configuration not stated), 205 to 206 °C; as for `CCCCCCCCCCCCCCCCCCNC(=O)Nc1cccc([N+](=O)[O-])c1`, 102 to 104 °C.
On to `CN(C)C(=O)Nc1ccc(N2CCOCC2)cc1`, for which the melting point lay within 199 to 204 °C.
With `C=CC[N+]([O-])(CCCCCCCCCCCCCCCCCC)CCCCCCCCCCCCCCCCCC` the figure was 59 to 64 °C; with `Cc1cn(C)c(=O)n(-c2cc(C(=O)OC(C)C)c(Cl)cc2F)c1=O`, 177 to 180 °C.
Molecule `CC(C)=CCCC(C)=CCc1c(-c2ccc(O)cc2O)oc2cc(O)cc(O)c2c1=O` showed a melting point of 94 to 95 °C.
For the molecule `CCOC(=O)C1Cc2cc3ccccc3n2C1` (configuration not stated), the melting point lay in the range of 55 to 57 °C.
Take `COCC(C)(C)c1cc(N)no1`: the melting point lay within 96 to 99 °C.
As for `CC(=O)OCC1CC2c3cccc4c3C(CC2N(C)C1)CN4C(C)=O` (configuration not stated), the figure is 172 to 177 °C; as for `CN(C)c1ccc([N+](=O)[O-])c(C(OC(=O)C(Cl)(Cl)Cl)c2ccccc2)c1[N+](=O)[O-]` (configuration not stated), 129 to 130 °C; as for `CC(=O)NN1CCN(C(=O)Cn2c(=O)sc3ccc(Cl)cc32)CC1`, 284 to 285 °C.
Take `CCCCCCCCCCCCC1=C(OC(C)=O)C(=O)c2c(C)cccc2C1=O`: the melting point was in the range of 69 to 74 °C.
With `CC(Oc1ccc2c(=O)c(-c3cccc(O)c3)coc2c1)C(=O)O` (configuration not stated), the melting point lay in the range of 218 to 219 °C.
As for `O=S(=O)(NC1C2CCC(C2)C1CO)c1ccccc1` (configuration not stated), the figure is 118 to 120 °C; as for `Nc1nc(O)c2c(n1)NCC(CCc1cc(C(=O)O)n[nH]1)C2` (configuration not stated), above 260 °C.
As for `CCOC(=O)C(Cc1ccc(OCCN2CCC(C)(C)c3cc(C(=NOC)c4ccccc4)ccc32)cc1)Oc1ccc(C(F)(F)F)cc1` (configuration not stated), the figure is 44 to 46 °C; as for `CN(c1cccc2cc(C3=NCC(C)(CN)S3)[nH]c12)S(=O)(=O)c1cccs1` (configuration not stated), 164 to 165 °C; as for `CC(=O)Nc1cccc(CCCCC(=O)O)c1`, 137 to 138 °C.
Take `COc1cc(OC)nc(NC(=O)NS(=O)(=O)c2ccccc2CCBr)n1`: the melting point was in the range of 163 to 166 °C.
With `O=Cc1cccc2nc(-c3ccccc3)oc12` the figure was 107 °C; with `O=C(O)c1ccc(C=CC=CC(=O)c2ccccc2)cc1`, 210 to 214 °C; with `CCC1(c2cn(-c3c(Cl)cc(C(F)(F)F)cc3Cl)nc2C#N)CC1(Br)Br` (configuration not stated), 107 to 108 °C.
Turning to `CCCCC1(O)CCN(CC23CC(c4ccccc42)c2ccccc23)CC1`, the melting point lay within 194 to 196 °C.
As for `OC(Cn1cncn1)(Cn1cncc1C(F)(F)F)c1ccc(Cl)cc1Cl` (configuration not stated), the figure is 190 to 192 °C.
For `COc1ccc(NC(=O)N2C(=O)CC(c3ccc(OC)c(OC4CCCC4)c3)N2C)cc1` (configuration not stated), the melting point is 123 to 125 °C.
As to `Cc1c(NC(=O)c2ccc(-c3ccccc3)c(F)c2)ccc2cc(CN3CCCCCC3)cnc12`, the melting point is 129 to 130 °C.
As for `COC(=O)c1nc(-c2ccc(Cl)cc2)nc(NCc2ccco2)c1Cl`, the figure is 132 to 134 °C.
The molecule `c1ccc2c(-c3nc(NC4CCCCC4)c4ccccc4n3)nccc2c1` displayed a melting point of 275 to 277 °C.
As for `CC(C)c1ccc(-c2nc(Cl)c(C=O)n2Cc2ccc(-c3ccccc3S(=O)(=O)N=CN(C)C)cc2)cc1`, the figure is 177 °C; as for `Cn1nc(-c2ccncc2)nc1-c1ccncc1`, 168 to 170 °C; as for `CCCNCC(O)COc1ccc2c(=O)cc(-c3ccccc3)oc2c1` (configuration not stated), 145 to 147 °C.
As for `CC(C)COC(=O)N[C@H](CC(=O)O)Cc1ccccc1`, the figure is 95 to 97 °C; as for `CCc1nn(Cc2cccnn2)c(C(N)=O)c1N`, 171 to 174 °C.
Consider `COC(=O)Nc1cc(C)on1`, for which the melting point lay within 136 to 137 °C.
With `O=C(O)Cc1cccc2c(C3CCCCC3)nccc12` the figure was 178 to 179 °C; with `COc1ccccc1N1CCN(S(=O)(=O)c2ccc([N+](=O)[O-])cc2)CC1`, 202 to 204 °C; with `NC(=O)[C@@H]1[C@H](Nc2c(Br)cnc3[nH]c(-c4ccsc4)nc23)[C@H]2C=C[C@@H]1C2`, 238 to 241 °C.
With `O=C(O)[C@@H]1CS[C@@H](CS)C1` the figure was 54.3 to 55.9 °C; with `N=C(Nc1cc(Cl)cc(NC(=O)/C=C/c2ccccc2Br)c1)c1ccccc1`, 99 to 101 °C; with `CCOC(=O)CCc1ccc(CCN2CCN(S(=O)(=O)c3ccccc3)CC2)cc1`, 114 to 116 °C.
In turn, `CCCOc1nsc(N=CN(C)C)c1C#N` came in with a melting point of 117 to 118 °C.
As to `O=C1NCC(=O)c2[nH]cnc2N1`, the melting point was above 300 °C.
With `N#Cc1cccc(C2=Nc3ccc(C4CC4)cc3NC(=O)C2)c1` the figure was 204 to 209 °C; with `CC[C@H](COC)n1cc(Cl)nc(N2CCc3cc(OC)cc(Br)c32)c1=O`, 100 to 102 °C; with `FCc1ccc(-c2cn([C@H]3CN4CCC3CC4)nn2)cc1`, 138 °C.
In turn, `CC(C)c1cccc(C(C)C)c1N=c1cccc(-c2cccc3ccccc23)[nH]1` registered a melting point of 142 to 144 °C.
The molecule `CC(C)(C)OC(=O)CN1CC(c2ccc3ccccc3c2)SCC(N2C(=O)c3ccccc3C2=O)C1=O` (configuration not stated) displayed a melting point of 208 to 210 °C.
With `COc1ccc(-n2cnc(OC(C)C(=O)O)n2)cc1` (configuration not stated) the figure was 155 to 157 °C; with `Cc1cc(Oc2ccc(NC(=O)c3ccccc3C(c3ccc(O)cc3)c3ccc(O)cc3)cn2)cc(C)c1Cl`, 125 °C.
Molecule `Clc1ccc(C(c2ccccc2)(c2ncc[nH]2)c2ncc[nH]2)cc1` gave a melting point of 140 °C.
With `Nc1c2c(nc3cccc(F)c13)C1CCC2C1` (configuration not stated) the figure was 173 °C.
As for `CCCCNC(=O)NS(=O)(=O)Cc1ccccc1-c1nnc(SC)o1`, the figure is 156 to 159 °C.
`COC(=O)[C@@H]1C[C@H](O[Si](C)(C)C)C(=O)[C@H]2[C@@]1(C)CC[C@H]1C(=O)O[C@H](c3ccoc3)C[C@]21C` showed a melting point of 197 to 200 °C.
Molecule `N#CCc1ccc(-c2nc3ccccc3o2)cc1N` returned a melting point of 198 to 199 °C.
With `COc1ccc(C2=NN(C3CCN(C(=O)NC(C)(C)C)CC3)C(=O)[C@@H]3CC=CC[C@H]23)cc1OC` the figure was 164 to 166 °C.
